Legend:
[1] = test system: rats with chronic constriction nerve injury; assay: Analgesic effect in rats with chronic constriction nerve injury (von Frey filament); assay type: in vivo, rat; details: orally administered, dose of 50 mg/kg or less, one hour after administration, von Frey filaments
Description: Analgesic Effect of Compounds in Rats with Chronic Constriction Nerve Injury
Rats with chronic constriction nerve injury were produced by partially modifying the method of Mosconi and Kruger et al. (Pain, vol. 64, pp. 37-57 (1996)).
Male Crl:CD(SD) rats were used for the experiments. Under pentobarbital anesthesia, the sciatic nerve of the left hind limb of the rat was exfoliated, and the exfoliated region was wrapped with a polyethylene tube (trade name: Intramedic, size: PE-60, manufactured by Becton Dickinson and Company) of 2 mm in length. On days 14 to 21 after the surgery, the rats were placed in an acrylic connected cage with a wire mesh floor (900 mm (length)×210 mm (depth)×140 mm (height)) consisting of 4 cages connected in a row and allowed to acclimate to the environment for at least 20 minutes, and then, the pain was evaluated.
The von Frey filament (trade name: touch test sensory evaluator, Model number: model 58011, manufactured by Muromachi Kikai) was used to evaluate pain, and the results were calculated as a pain threshold. That is, by using a von Frey filament of different stimulus intensity, stimulation was given to the plantar surface of the injured side of rats with chronic constriction nerve injury, and the stimulus intensity to cause paw withdrawal response was obtained. Then, the 50% pain threshold (Paw withdrawal threshold) (g) was calculated by the up down method of Dixon [Annual Review of Pharmacology and Toxicology, vol. 20, pp. 441-462 (1980)].
In the evaluation of the test compound, rats with 50% pain threshold of less than 4 g were used, and the test compound was dissolved in a 0.5% aqueous methyl cellulose solution and orally administered at a dose of 5 mL/kg. One hour after the administration, the pain threshold was measured using von Frey filaments.

[2] = target: T1, human CB2 receptor (Homo sapiens, UniProt P34972); assay: GTPγS binding assay via human CB2 receptor; assay type: biochemical; details: membrane of human CB2 receptor stably expressing CHO-K1 cells; for EC50: read-out: EC50 value (agonist activity, [35S]GTPγS binding); for Emax: read-out: Emax value (maximum effect relative to CP55940 set to 100%)
T1 construct: expressed in transfected cells
Protocol: GTPγS binding assay via human CB2 receptor
The assay was performed according to a method of Hillard et al. (The Journal of Pharmacology and Experimental Therapeutics, vol. 289, p. 1427 (1999)). For use as a membrane sample, a membrane fraction was prepared from human CB2 receptor stably expressing CHO-K1 cells (Nature, vol. 365, pp. 61-65 (1993)). The membrane sample (final concentration of 40 μg·protein/mL) together with each test compound and [^35S]GTPγS (manufactured by PerkinElmer, final concentration of 0.05 nmol/L), was incubated at 30° C. for 1 hour in the assay buffer solution (50 mmol/L Tris-HCl buffer solution (pH 7.4), 100 mmol/L NaCl, 1 mmol/L EDTA, 3 mmol/L MgCl2 and 0.1% bovine serum albumin) containing 20 μmol/L guanosine 5′-diphosphate (GDP). Then, the mixture was filtered through a glass filter GF/B (manufactured by Whatman). After the glass filter was washed with the assay buffer solution, the radioactivity on the glass filter was measured using a liquid scintillation counter (TRI-CARB 2700TR, manufactured by Packard). The nonspecific binding amount was defined as a binding amount in the presence of 10 μmol/L GTPγS. The specific binding amount was presented as the difference between the total binding amount and the nonspecific binding amount. The increase rate of the specific binding amount in the presence of the test compound relative to the specific binding amount in the absence of the test compound was defined as agonist activity of the test compound. The concentration which gives 50% of the maximum effect of the test compound (EC50 value) was calculated by nonlinear regression analysis of the concentration-response curve. The percentage of the maximum effect of the test compound (Emax value) was calculated based on the maximum effect of CP55940 (manufactured by Tocris) measured simultaneously set to 100%.

[3] = target: T2, CB2 receptor (Rattus norvegicus, UniProt Q9QZN9); assay: [3H]CP55940 binding assay, CB2 receptor (rat spleen membrane); details: [3H]CP55940 0.5 nmol/L, 25° C. 1 hour
T2 construct: from tissue; host or cells: rat spleen membranes
T2 sequence (Q9QZN9 1-360): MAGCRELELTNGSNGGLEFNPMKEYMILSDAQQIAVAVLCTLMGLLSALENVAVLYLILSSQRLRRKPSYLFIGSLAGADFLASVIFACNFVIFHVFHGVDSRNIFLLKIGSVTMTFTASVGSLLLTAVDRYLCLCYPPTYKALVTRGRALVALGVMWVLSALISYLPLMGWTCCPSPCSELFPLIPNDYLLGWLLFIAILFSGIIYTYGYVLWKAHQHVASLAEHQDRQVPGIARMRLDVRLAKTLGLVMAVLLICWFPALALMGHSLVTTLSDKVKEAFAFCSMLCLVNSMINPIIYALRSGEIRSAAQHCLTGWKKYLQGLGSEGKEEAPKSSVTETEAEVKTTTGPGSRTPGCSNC
Protocol: Cannabinoid CB1 and CB2 receptor-binding activities
The assay was performed according to a method of Hillard et al. (The Journal of Pharmacology and Experimental Therapeutics, vol. 289, p. 1427 (1999)). A rat forebrain membrane sample was prepared for use in the binding assay for CB1 receptor, and a rat spleen membrane sample was prepared for use in the binding assay for CB2 receptor. Each membrane sample (forebrain: final concentration of 0.5 mg·protein/mL, spleen: final concentration of 2 mg·protein/mL) together with each test compound and [^3H]CP55940 ((−)-cis-3-[2-hydroxy-[3,5-^3H]-4-(1,1-dimethylheptyl)-phenyl]-trans-4-(3-hydroxypropyl)cyclohexanol, manufactured by PerkinElmer, final concentration of 0.5 nmol/L), was incubated at 25° C. for 1 hour in the assay buffer solution (50 mmol/L Tris-HCl buffer solution (pH 7.4), 1 mmol/L EDTA and 3 mmol/L MgCl2) containing 0.1% bovine serum albumin. Then, the mixture was filtered through a glass filter GF/C (manufactured by Whatman) pretreated with 1% polyethyleneimine. After the glass filter was washed with the assay buffer solution containing 0.2% bovine serum albumin, the radioactivity on the glass filter was measured using a liquid scintillation counter (TRI-CARB 2700TR, manufactured by Packard). The nonspecific binding amount was defined as a binding amount in the presence of 10 μmol/L […] ((R)-(+)-[2,3-dihydro-5-methyl-3-(4-morpholinylmethyl)-pyrrolo[1,2,3-de]-1,4-benzoxazin-6-yl]-1-naphthalenylmethanone, manufactured by Tocris). The specific binding amount was presented as the difference between the total binding amount and the nonspecific binding amount. The 50% inhibitory concentration (IC50 value) of the test compound in the specific binding was determined. The Ki value of the test compound was calculated from this IC50 value and the Kd value for [^3H]CP55940 binding.

T1 sequence (P34972 whole entry): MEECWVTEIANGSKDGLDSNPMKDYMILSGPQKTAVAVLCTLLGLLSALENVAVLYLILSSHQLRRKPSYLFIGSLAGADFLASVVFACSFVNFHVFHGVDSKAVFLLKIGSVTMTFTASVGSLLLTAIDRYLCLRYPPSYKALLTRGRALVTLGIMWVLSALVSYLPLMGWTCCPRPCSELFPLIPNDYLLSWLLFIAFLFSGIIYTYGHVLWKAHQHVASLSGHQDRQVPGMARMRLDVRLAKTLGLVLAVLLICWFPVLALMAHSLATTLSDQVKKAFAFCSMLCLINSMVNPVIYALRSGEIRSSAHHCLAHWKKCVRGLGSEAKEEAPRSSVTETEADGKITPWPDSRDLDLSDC

SMILES | 50% pain threshold (Paw withdrawal threshold) [1] | EC50 [2] [nM] | Emax [2] [%] | Ki [3] [nM]
CCN(CC)C(=O)c1cc2nc(C(C)(C)C)c(CC3CCOCC3)n2cn1 [Compound 15, 2-tert-Butyl-N,N-diethyl-3-(tetrahydropyran-4-ylmethyl)-imidazo[1,2-c]pyrimidine-7-carboxamide] | significantly increased the pain threshold | < 1000 | > 30 | < 1000
CCN(CC)C(=O)c1cc2nc(C(C)(C)C)c(CC3CCCCC3)n2cn1 [Compound 14, 2-tert-Butyl-3-cyclohexylmethyl-N,N-diethyl-imidazo[1,2-c]-pyrimidine-7-carboxamide] | – | < 1000 | > 30 | < 1000
CCN(CC)C(=S)c1cc2nc(C(C)(C)C)c(CC3CCOCC3)n2cn1 [Compound 16, 2-tert-Butyl-N,N-diethyl-3-(tetrahydropyran-4-ylmethyl)-imidazo[1,2-c]pyrimidine-7-carbothioamide] | – | < 1000 | > 30 | < 1000
CC(C)CN(C)C(=O)c1ccn2c(CC3CCOCC3)c(C(C)(C)C)nc2c1 [Compound 18, 2-tert-Butyl-N-isobutyl-N-methyl-3-(tetrahydropyran-4-ylmethyl)imidazo[1,2-a]pyridine-7-carboxamide] | significantly increased the pain threshold | < 1000 | > 30 | < 1000
CC(C)N(C)C(=O)c1ccn2c(CC3CCOCC3)c(C(C)(C)C)nc2c1 [Compound 17, 2-tert-Butyl-N-isopropyl-N-methyl-3-(tetrahydropyran-4-ylmethyl)-imidazo[1,2-a]pyridine-7-carboxamide] | significantly increased the pain threshold | < 1000 | > 30 | < 1000
CCN(CC)C(=S)c1ccn2c(CC3CCOCC3)c(C(C)(C)C)nc2c1 [Compound 8, 2-tert-Butyl-N,N-diethyl-3-(tetrahydropyran-4-ylmethyl)-imidazo[1,2-a]pyridine-7-carbothioamide] | – | < 1000 | > 30 | < 1000
CCN(CC)C(=O)c1ccn2c(CC3CCCCC3)c(C(C)(C)C)nc2c1 [Compound 1, 2-tert-Butyl-3-cyclohexylmethyl-N,N-diethylimidazo[1,2-a]-pyridine-7-carboxamide] | – | < 1000 | > 30 | < 1000
CCN(CC)C(=O)c1ccn2c(CC3CCCCO3)c(C(C)(C)C)nc2c1 (centres unmarked) [Compound 27, 2-tert-Butyl-N,N-diethyl-3-(tetrahydropyran-2-ylmethyl)-imidazo[1,2-a]pyridine-7-carboxamide] | – | – | – | < 1000
CCN(CC)C(=O)c1ccn2c(CC3CCOCC3)c(C(C)(C)C)nc2c1 [Compound 2, 2-tert-Butyl-N,N-diethyl-3-(tetrahydropyran-4-ylmethyl)-imidazo[1,2-a]pyridine-7-carboxamide] | significantly increased the pain threshold | < 1000 | > 30 | < 1000
